Results published in the OPERA property sets (Mansouri et al. 2018).

Details: for log10 BCF / log10 biotransformation half-life (days): fish

SMILES | melting point | boiling point | other results
CCCCCCCCCCCC(=O)OOC(=O)CCCCCCCCCCC | 49 °C | – | ready biodegradability: readily biodegradable
C=COC=O | – | – | log10 vapour pressure (mmHg): 2.5
C[C@@]12C(=O)OC(=O)[C@]1(C)C1CCC2O1 | 218 °C | – | –
C=Cc1ccc(C)nc1 | – | 181 °C | log10 vapour pressure (mmHg): 0.0719
c1ccc(CSSCc2ccccc2)cc1 | 71.5 °C | – | –
CC(C)(CO)[N+](=O)[O-] | 89.5 °C | – | –
O=C(O)c1cc(C(=O)O)c(C(=O)O)cc1C(=O)O | 276 °C | – | –
CC(O)COC(C)COC(C)CO (stereo not drawn) | – | – | ready biodegradability: not readily biodegradable
O=C1OC(OC2OC(=O)C(Cl)=C2Cl)C(Cl)=C1Cl (stereo not drawn) | 142 °C | – | –
Cc1ccc(S(=O)(=O)F)cc1 | 41.5 °C | – | –
CC(C)=CCC1=C(O)C(C(=O)CC(C)C)=C(O)C(CC=C(C)C)(CC=C(C)C)C1=O | 93 °C | – | –
CCC(N)Cc1c[nH]c2ccccc12 (stereo not drawn) | 97 °C | – | –
FC(F)(F)C(F)(F)C(F)(F)C(F)(F)C(F)(F)C(F)(F)C(F)(F)F | -78 °C | 82.5 °C | log10 vapour pressure (mmHg): 1.88
Brc1ccc(Oc2ccc(Br)c(Br)c2)c(Br)c1 | – | – | log10 BCF: 6.05
COc1cccc(OC)c1C | 40 °C | – | –
O=C(Nc1ccc2ncccc2c1)Nc1ccc2ncccc2c1 | 262 °C | – | –
O=c1cccco1 | 8.5 °C | 208 °C | –
CCOC(=O)C1CC=CCC1 (stereo not drawn) | – | 194 °C | –
ON=Cc1ccccc1O | 57 °C | – | –
CCOC(N)=O | 49 °C | 185 °C | log10 vapour pressure (mmHg): -0.582; ready biodegradability: not readily biodegradable
C=CCC1(C(C)CC)C(=O)NC(=O)NC1=O (stereo not drawn) | 109 °C | – | –
Cc1cc(O)c(C(C)(C)C)cc1C | 46 °C | 258 °C | –
CCCCCC(=O)O[C@]1(C(C)=O)CC[C@H]2[C@@H]3CCC4=CC(=O)CC[C@@H]4[C@H]3CC[C@@]21C | 124 °C | – | –

SMILES | melting point | boiling point | other results
CC(C)CI | -93 °C | 121 °C | log10 vapour pressure (mmHg): 1.19
Cc1nccc2c1[nH]c1ccccc12 | 236 °C | – | –
CCCCCI | -85.6 °C | 155 °C | log10 Henry constant (atm·m³/mol): -1.71; log10 vapour pressure (mmHg): 0.642
Cc1ccc2c(ccc3cc4ccccc4cc32)c1 | 156 °C | – | –
CCCCOS(=O)OCCCC | – | 230 °C | –
Oc1ccccc1F | 16.1 °C | 152 °C | log10 Henry constant (atm·m³/mol): -5.49; ready biodegradability: not readily biodegradable
CCCCCCC(=O)OC | -56 °C | 174 °C | –
c1ccc2c(c1)C1c3ccccc3C2c2ccccc21 | 254 °C | – | –
CS | -123 °C | 5.9 °C | log10 vapour pressure (mmHg): 3.18; ready biodegradability: readily biodegradable
CC[C@@H](O)[C@@H]1CCCCN1 | 121 °C | 226 °C | –
CCN(CC)CCOCCO | – | 222 °C | –
CCC(=O)OCc1ccco1 | – | 195 °C | –
Clc1cc(Cl)c(-c2cc(Cl)c(Cl)cc2Cl)cc1Cl | – | – | log10 Henry constant (atm·m³/mol): -4.64; log10 Koa: 9.73; log10 Koc (L/kg): 5.58; log10 vapour pressure (mmHg): -5.46; log10 BCF: 5.43; log10 biotransformation half-life (days): 2.55
CN(C)C(=O)Nc1ccc(Cl)c(Cl)c1 | 158 °C | – | log10 Koc (L/kg): 2.4; log10 vapour pressure (mmHg): -7.16; ready biodegradability: not readily biodegradable; log10 BCF: 1.15; log10 biotransformation half-life (days): -1.45
C1=COCCC1 | -70 °C | 86 °C | –
CNC(=O)C(C)SCCSP(=O)(OC)OC (stereo not drawn) | 43 °C | – | –
C=CC(C)O (stereo not drawn) | – | – | ready biodegradability: readily biodegradable
O=C(O)[C@H]1O[C@@H](OCC(Cl)(Cl)Cl)[C@H](O)[C@@H](O)[C@@H]1O | 142 °C | – | –
CC(=O)CC(c1ccc(Cl)cc1)c1c(O)c2ccccc2oc1=O (stereo not drawn) | 169 °C | – | –
NC(=O)C(Cl)Cl | 99.4 °C | 234 °C | –
Nc1ccc([N+](=O)[O-])cc1O | 208 °C | – | –
CC(C)CNCC(C)C | -73.5 °C | 140 °C | log10 vapour pressure (mmHg): 0.862; ready biodegradability: readily biodegradable
CNC(=S)NCc1ccccc1 | 75 °C | – | –

SMILES | melting point | boiling point | other results
O[C@@H]1[C@H]2CC[C@H](C2)[C@@H]1O | 139 °C | – | –
Cc1ccc(S(=O)(=O)C2(C(=O)OC(C)C)CC2)cc1 | 65.5 °C | – | –
C1COCCN1 | -4.9 °C | 128 °C | log10 vapour pressure (mmHg): 1; ready biodegradability: not readily biodegradable; log10 BCF: 0.45
CN1CCC2=C(C1)C(c1ccccc1)c1ccccc12 (stereo not drawn) | 91 °C | – | –
Cc1ccnc(C)c1C | – | 192 °C | –
C=CCOC=O | – | 83.6 °C | –
Nc1ccc(S(=O)(=O)c2ccc(NCCO)cc2)cc1 | 131 °C | – | –
COc1ccc2c(c1)c(CC(=O)O)c(C)n2C(=O)c1ccc(Cl)cc1 | 158 °C | – | –
CC(=O)CC(=O)O | 36.5 °C | – | –
CCCCCCCCCCCCCCCCCCc1ccccc1 | 29 °C | 408 °C | –
C=C(CCC)CCC | – | 118 °C | –
Nc1ccncn1 | 155 °C | – | –
O=S(=O)(Cl)CCCl | – | 202 °C | –
Nc1ccc2ccc3ccccc3c2c1 | 143 °C | – | –
C=C(Cl)C(=C)Cl | – | 98 °C | –
Oc1c(Cl)cc(Cl)cc1Cl | – | – | log10 Koc (L/kg): 3.03; ready biodegradability: readily biodegradable; log10 BCF: 1.94; log10 biotransformation half-life (days): -0.57
CCCCCCCCCCCCCC[N+](C)(C)C.[Br-] | 248 °C | – | –
CCC(C)Cc1ccccc1 (stereo not drawn) | – | 195 °C | –
OC[C@H]1O[C@@](CO)(O[C@H]2O[C@H](CO)[C@@H](O)[C@H](O)[C@H]2O)[C@@H](O)[C@@H]1O | 186 °C | – | –
CNC(=O)Oc1ccc(C)c(C)c1 | 79.5 °C | – | log10 vapour pressure (mmHg): -3.24
CC=C(CC)C(C)C(=O)CC (stereo not drawn) | 74.5 °C | – | –
